Results taken from ChEMBL document CHEMBL1141345, “Bacillamides from a hypersaline microbial mat bacterium” (J Nat Prod, 2007).
Active and inactive are the calls of the source.

Key:
Bacillus endophyticus = assay: Antimicrobial activity against Bacillus endophyticus SP31 isolate at <500 uM by broth dilution assay; format: functional; conditions: Priestia endophytica
Staphylococcus aureus [1] = assay: Growth inhibition of methicillin-resistant Staphylococcus aureus; format: functional, organism-based
Staphylococcus aureus [2] = assay: Reduction of alpha-toxin secretion in biofilm-forming methicillin-resistant Staphylococcus aureus at <150 uM; format: functional, organism-based

Measured: Activity

CC(=O)N[C@H](C)c1nc(C(=O)NCCc2c[nH]c3ccccc23)cs1
inactive: all assays above

CC(=O)c1nc(C(=O)NCCc2c[nH]c3ccccc23)cs1
inactive: all assays above

C[C@@H](O)c1nc(C(=O)NCCc2c[nH]c3ccccc23)cs1
inactive: all assays above
